According to patent US4783461A, “3,6-disubstituted triazolo [3,4-A]phthalazine derivatives” (Gruppo Lepetit S.p.A., priority 1983, dated 1988):

Assays:
[1] = test system: rats; assay: conflict test in rats (punished responding, Vogel method as modified by Lippa); format: in vivo; conditions: Rattus norvegicus, ip, 1 h, i.p., tested 60 minutes after administration, read-out: minimal effective dose (MED) significantly increasing the number of shocks versus controls
Method: The ability of the compounds of the present invention to increase punished responding in animals in a conflict situation, a procedure with high validity for predicting the anxiolytic effect of drugs, was assessed by testing these compounds in rats according to the method described by J. R. Vogel, B. Beer, E. D. Clody in Psychopharmacologia 21, 1-7 (1971) as modified by A. S. Lippa et al., in "Anxiolytics, Industrial Pharmacology",Vol. 3, Futura Publishing, 1979, pages 41-81. Briefly, rats are deprived for water for 48 hours and deprived of food for 20 hours prior to testing. Sixty minutes after administration of the test compound each rat is placed in an especially equipped cage. A glucose solution is available from a tap located in the rear of the cage. A constant pulsating shocking current is connected between the grid floor and the tap. Each rat is allowed 20 seconds of non-shocked drinking, then cycles of 5 seconds shock-off and 5 seconds shock-on began. During the shock-on period each lick on the tap is accompanied by shock. The number of shocks received by each animal is recorded and minimal effective doses are determined.

[2] = molecular target: rat brain benzodiazepine receptors (3H-diazepam receptor); assay: benzodiazepine-receptor binding test in vitro (inhibition of specific 3H-diazepam binding to rat brain membranes); conditions: 3H-diazepam displacement, read-out: inhibition constant Ki (Ki = IC50/(1+C/KD)) for specific 3H-diazepam binding
Text: The pharmacological properties of the compounds of the present invention were first investigated by submitting some representative members of this class to the benzodiazepine-receptor binding-test in vitro.

COCCOCc1nn2c(-c3ccc(OC)cc3)nnc2c2ccccc12 [Example 1, 6-[(2-Methoxyethoxy)methyl]-3-(4-methoxyphenyl)-1,2,4-triazolo[3,4-a]phthalazine] gave a minimal effective dose [1] of 5 mg/kg and a Ki [2] of 20 nM.

Compound COc1ccc(-c2nnc3c4ccccc4c(CN4CCCC4)nn23)cc1 [Example 2, 3-(4-Methoxyphenyl)-6-[(1-pyrrolidinyl)methyl]-1,2,4-triazolo[3,4-a]phthalazine] has a Ki [2] of 150 nM.
